Among the test systems are SK-MEL-28 melanoma; IGROV1 ovarian; UACC-257 melanoma; OVCAR-3 ovarian; MOLT-4 leukemia; NCI-H23 lung; CCRF-CEM leukemia; SF-539 CNS; A498 renal; SNB-19 CNS.
What all share (experiment): NCI anticancer screen, dose series, 48 h

The structures appear in SMILES notation. Several values for one entry are separate records, joined by “and”; a condition that tells them apart may be missing. Equal entries are not always repeated.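 Tested at 5 concentrations; 48 h exposure; 96-well plates; endpoints linearly interpolated, else capped at highest concentration. GI50 marks 50% less growth. TGI denotes the concentration required for complete inhibition of growth.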 Where only a bound is given, the exact number is not on record here.

Take `Clc1coc2nc3ccccc3c(Nc3ccc4c(c3)OCO4)c12`: the GI50 was 3.49 µM with SK-MEL-28 melanoma; 5.95 µM in the experiment on IGROV1 ovarian; 9.15 µM with UACC-257 melanoma; 0.596 µM in the experiment with OVCAR-3 ovarian; 0.803 µM in the experiment with MOLT-4 leukemia; 0.983 µM in the experiment with NCI-H23 lung. In addition, the GI50 is 1.54 µM in the experiment on CCRF-CEM leukemia, 2.46 µM in the experiment with SF-539 CNS, 1.14 µM with A498 renal and 1.8 µM in the experiment with SNB-19 CNS. Further, the TGI was over 71.4 µM in the experiment with SK-MEL-28 melanoma; over 100 µM in the experiment with IGROV1 ovarian; 26.1 µM in the experiment on UACC-257 melanoma; 2.46 µM in the experiment with OVCAR-3 ovarian; 22 µM in the experiment with MOLT-4 leukemia; 22 µM in the experiment with NCI-H23 lung. The TGI in the experiment with CCRF-CEM leukemia is 6.96 µM; in the experiment on SF-539 CNS, 7.42 µM; in the experiment with A498 renal, 5.82 µM; in the experiment on SNB-19 CNS it was over 100 µM.

With `O=c1n(CC2CO2)c(=O)n(CC2CO2)c(=O)n1CC1CO1` (configuration not stated), the GI50 in the experiment with SK-MEL-28 melanoma is 22.7 µM; with IGROV1 ovarian, 24.9 µM and 7.31 µM; in the experiment on UACC-257 melanoma, 15.4 µM; with OVCAR-3 ovarian it was 20.6 µM and 13.1 µM; with MOLT-4 leukemia it was 5.09 µM and 2.95 µM; in the experiment with NCI-H23 lung, 14.2 µM and 7.3 µM. In addition, the GI50 in the experiment with CCRF-CEM leukemia is 6.05 µM and 2.92 µM; in the experiment with SF-539 CNS, 2.92 µM; in the experiment with A498 renal it was 12.2 µM; in the experiment with SNB-19 CNS, 22 µM and 6.55 µM. In addition, the TGI with SK-MEL-28 melanoma was 139 µM and > 100 µM; in the experiment with IGROV1 ovarian it was 96 µM and > 100 µM; in the experiment on UACC-257 melanoma, 38.4 µM and 109 µM; in the experiment with OVCAR-3 ovarian it was 108 µM and 40.2 µM; with MOLT-4 leukemia, 210 µM and > 100 µM; in the experiment on NCI-H23 lung it was 90.9 µM and > 100 µM. Moreover, the TGI with CCRF-CEM leukemia was 223 µM and > 100 µM; in the experiment with SF-539 CNS, 41.6 µM and 24.7 µM; in the experiment with A498 renal, 83.9 µM and 26.5 µM; with SNB-19 CNS, 98.3 µM and > 100 µM.

Regarding `CNCCNc1c2c(c(NCCNC)c3c(CN(C)C)c[nH]c13)C(=O)c1ccccc1C2=O`, the GI50 with SK-MEL-28 melanoma was 9.59 µM; in the experiment on IGROV1 ovarian, 0.933 µM; with UACC-257 melanoma, 20.1 µM; with OVCAR-3 ovarian it was 1.03 µM; in the experiment on MOLT-4 leukemia, 0.434 µM; in the experiment on NCI-H23 lung, 2.22 µM. The GI50 in the experiment on CCRF-CEM leukemia was 0.716 µM; in the experiment on SF-539 CNS, 4.46 µM; in the experiment on A498 renal, 1.41 µM; in the experiment with SNB-19 CNS, 12.2 µM. Also, the TGI came out at 26.4 µM with SK-MEL-28 melanoma; 12.9 µM with IGROV1 ovarian; 45.7 µM in the experiment on UACC-257 melanoma; 6.8 µM in the experiment on OVCAR-3 ovarian; 34.2 µM in the experiment with CCRF-CEM leukemia; 17.1 µM in the experiment with SF-539 CNS. The TGI with A498 renal is 6.27 µM; in the experiment on SNB-19 CNS it was over 41.7 µM.

Take `Cc1nnc(S(=O)(=O)c2ccc(N=Nc3c(N)nc(N)nc3N)cc2)s1`: the TGI in the experiment with SK-MEL-28 melanoma, in the experiment with IGROV1 ovarian, in the experiment with UACC-257 melanoma, in the experiment on OVCAR-3 ovarian, with MOLT-4 leukemia and with NCI-H23 lung was over 100 µM each time. In addition, the TGI in the experiment on CCRF-CEM leukemia, in the experiment on SF-539 CNS, with A498 renal and in the experiment on SNB-19 CNS was over 100 µM each time.

On to `Cc1c2cccnc2c(C)c2c1c1cc(CO)ccc1n2C`, for which the GI50 in the experiment with SK-MEL-28 melanoma was 3.01 µM; in the experiment with IGROV1 ovarian, 0.579 µM; with UACC-257 melanoma it was 1.51 µM; in the experiment with OVCAR-3 ovarian, 2.38 µM; with MOLT-4 leukemia, 1.64 µM; in the experiment with NCI-H23 lung, 2.31 µM. Also, the GI50 in the experiment on CCRF-CEM leukemia is 1.87 µM; in the experiment with SF-539 CNS it was 2.49 µM; in the experiment with A498 renal, 0.104 µM; with SNB-19 CNS it was 2.67 µM. The TGI was 10.9 µM with SK-MEL-28 melanoma; 9.34 µM in the experiment with IGROV1 ovarian; 4.25 µM in the experiment with UACC-257 melanoma; 22.5 µM in the experiment with MOLT-4 leukemia; 16 µM in the experiment on NCI-H23 lung; 45.7 µM with CCRF-CEM leukemia. Besides, the results for the TGI with SF-539 CNS, in the experiment on A498 renal and in the experiment with SNB-19 CNS were 11.7 µM, 0.243 µM and 14.6 µM, respectively.

Take `COc1ccc2c(c1)C(C)Cc1c(Cl)ncnc1N2C` (configuration not stated): the GI50 in the experiment on SK-MEL-28 melanoma was 0.368 µM; in the experiment with IGROV1 ovarian, 1.96 µM; with UACC-257 melanoma, 0.471 µM; with OVCAR-3 ovarian, 0.268 µM; in the experiment with MOLT-4 leukemia it was 1.17 µM; with NCI-H23 lung, 0.449 µM. Besides, the GI50 in the experiment with CCRF-CEM leukemia is 2.14 µM; in the experiment with SF-539 CNS, 0.471 µM; with A498 renal, 0.23 µM; in the experiment with SNB-19 CNS it was 0.732 µM. The TGI with SK-MEL-28 melanoma was 46.1 µM; in the experiment with IGROV1 ovarian, over 69.6 µM; in the experiment with UACC-257 melanoma it was 23.3 µM; in the experiment with OVCAR-3 ovarian it was 0.75 µM; in the experiment on MOLT-4 leukemia, over 22.6 µM; in the experiment on NCI-H23 lung, 11.5 µM. For the same compound, the TGI was over 55.8 µM in the experiment with CCRF-CEM leukemia, 18.8 µM in the experiment on SF-539 CNS, 0.744 µM in the experiment with A498 renal and over 100 µM in the experiment with SNB-19 CNS.

With `CCCCCCCCCC/C=C/CC(=O)SCCNC(=O)CCNC(=O)[C@@H](O)C(C)(C)COP(=O)(O)OP(=O)(O)OCC1OC(n2cnc3c(N)ncnc32)C(O)C1OP(=O)(O)O` (some centres not stated), the TGI in the experiment with SK-MEL-28 melanoma, in the experiment with IGROV1 ovarian, in the experiment with UACC-257 melanoma, in the experiment with OVCAR-3 ovarian, in the experiment with MOLT-4 leukemia and with NCI-H23 lung was over 10 µM each time. For the same compound, the TGI in the experiment on CCRF-CEM leukemia, with SF-539 CNS, in the experiment on A498 renal and in the experiment with SNB-19 CNS was over 10 µM in each case.

As to `COC(=O)C1=C(C)N(NC(=O)c2ccccc2)C(C)(O)C12CCOC2=O` (configuration not stated), the TGI in the experiment with SK-MEL-28 melanoma, in the experiment with IGROV1 ovarian, with UACC-257 melanoma, in the experiment with OVCAR-3 ovarian, in the experiment with MOLT-4 leukemia and in the experiment on NCI-H23 lung was over 100 µM in each case. Also, the TGI with CCRF-CEM leukemia, with SF-539 CNS, with A498 renal and in the experiment on SNB-19 CNS was over 100 µM throughout.

Take `Cn1cc(C2=C(c3ccc4ccccc4c3)C(=O)NC2=O)c2ccccc21`: the GI50 in the experiment on SK-MEL-28 melanoma is over 25 µM; in the experiment on IGROV1 ovarian, over 19.5 µM; in the experiment on UACC-257 melanoma, over 25 µM; with OVCAR-3 ovarian, over 25 µM; with MOLT-4 leukemia, over 20.1 µM; in the experiment with NCI-H23 lung, over 25 µM. The GI50 in the experiment with CCRF-CEM leukemia, in the experiment on SF-539 CNS, in the experiment on A498 renal and with SNB-19 CNS was over 25 µM each time. For the same compound, the TGI in the experiment on SK-MEL-28 melanoma, with IGROV1 ovarian, with UACC-257 melanoma, in the experiment with OVCAR-3 ovarian, in the experiment on MOLT-4 leukemia and with NCI-H23 lung was over 25 µM each time. Also, the TGI in the experiment with CCRF-CEM leukemia, in the experiment with SF-539 CNS, in the experiment on A498 renal and in the experiment with SNB-19 CNS was over 25 µM each time.

With `COc1ncnc(C2CC2)c1-c1ncc2cnn(Cc3ccc(-c4nc(C(F)(F)F)cn4C(C)C)cc3)c2n1`, the GI50 with SK-MEL-28 melanoma is 19.1 µM; with IGROV1 ovarian it was 21.1 µM; in the experiment on UACC-257 melanoma, 18.4 µM; in the experiment on OVCAR-3 ovarian, 22.2 µM; in the experiment on MOLT-4 leukemia it was 17.5 µM; in the experiment on NCI-H23 lung it was 21.8 µM. Also, the GI50 with CCRF-CEM leukemia was 34 µM; in the experiment on SF-539 CNS, 16.1 µM; in the experiment with A498 renal, 24.5 µM; in the experiment with SNB-19 CNS, 22 µM. Further, the TGI with SK-MEL-28 melanoma is 71.3 µM; with IGROV1 ovarian, over 100 µM; in the experiment with UACC-257 melanoma, 58.8 µM; in the experiment on OVCAR-3 ovarian it was 76.5 µM; in the experiment on MOLT-4 leukemia it was over 100 µM; in the experiment on NCI-H23 lung, 78 µM. The TGI in the experiment with CCRF-CEM leukemia was over 100 µM; in the experiment with SF-539 CNS, 39 µM; in the experiment with A498 renal, over 100 µM; in the experiment on SNB-19 CNS, 69.5 µM.

As for `Cc1ccccc1N1C(=O)/C(=C/c2ccc(N(CCC#N)CCC#N)cc2)N=C1c1cc([N+](=O)[O-])ccc1Cl`, the TGI in the experiment with SK-MEL-28 melanoma, in the experiment with IGROV1 ovarian, in the experiment on UACC-257 melanoma, with OVCAR-3 ovarian, in the experiment on MOLT-4 leukemia and with NCI-H23 lung was over 100 µM throughout. Moreover, the TGI with CCRF-CEM leukemia, with SF-539 CNS, with A498 renal and with SNB-19 CNS was over 100 µM in each case.

For `O=C(Nc1nc2ncn(CCI)c2c(=O)[nH]1)c1ccccc1`, the TGI with SK-MEL-28 melanoma, with IGROV1 ovarian, in the experiment with UACC-257 melanoma, in the experiment on OVCAR-3 ovarian, in the experiment with MOLT-4 leukemia and with NCI-H23 lung was over 100 µM throughout. For the same compound, the TGI in the experiment on CCRF-CEM leukemia was over 100 µM; in the experiment on SF-539 CNS, over 64.6 µM; with A498 renal, 83.3 µM; with SNB-19 CNS, over 100 µM.

With `CCN1CCN(c2ccc(Nc3cc(N(C)C(=O)Nc4c(Cl)c(OC)cc(OC)c4Cl)ncn3)cc2)CC1`, the GI50 in the experiment on SK-MEL-28 melanoma was 1.87 µM; in the experiment on IGROV1 ovarian it was 4.12 µM; in the experiment with UACC-257 melanoma it was 1.77 µM; with OVCAR-3 ovarian, 5.67 µM; with MOLT-4 leukemia it was 1.87 µM; in the experiment with NCI-H23 lung, 4.35 µM. Besides, the GI50 with CCRF-CEM leukemia is 1.9 µM; with SF-539 CNS it was 3.11 µM; with A498 renal it was under 0.0113 µM; in the experiment on SNB-19 CNS it was 4.06 µM. Moreover, the TGI was 3.46 µM in the experiment on SK-MEL-28 melanoma; 22.6 µM with IGROV1 ovarian; 3.7 µM with UACC-257 melanoma; 15.9 µM in the experiment on OVCAR-3 ovarian; 5.8 µM with MOLT-4 leukemia; 44.6 µM in the experiment with NCI-H23 lung. Further, the TGI in the experiment on CCRF-CEM leukemia was 6.01 µM; in the experiment on SF-539 CNS, 7.99 µM; in the experiment on A498 renal, 0.062 µM; with SNB-19 CNS, 18.7 µM.

Values taken from PubChem BioAssay (NCI).
